The term IC50 denotes the concentration needed to halve the response being measured.

Structures are written as SMILES. Where a name gives a salt, the structure may show the parent alone. Read-outs that look alike come from different tables or passages of the source.

Experiment [1] addresses PI3Kγ (p110γ) Recombinant Human Protein (Homo sapiens (Human), UniProt P48736). Briefly: PI3K-γ scintillation proximity assay. The settings on record: 2 μM ATP, 20 μM PIP2. The class given is biochemical. A general note: Scintillation proximity formats need no separation of bound from free tracer.
Experiment [2] deals with PI3Kδ (p110δ/p85α) Recombinant Human Protein (Homo sapiens (Human), UniProt O00329). Briefly: PI3Kδ scintillation proximity assay. Particulars: 2 μM ATP, 20 μM PIP2. The class given is biochemical.
Sequence of PI3Kδ (p110δ/p85α) Recombinant Human Protein (O00329 whole entry): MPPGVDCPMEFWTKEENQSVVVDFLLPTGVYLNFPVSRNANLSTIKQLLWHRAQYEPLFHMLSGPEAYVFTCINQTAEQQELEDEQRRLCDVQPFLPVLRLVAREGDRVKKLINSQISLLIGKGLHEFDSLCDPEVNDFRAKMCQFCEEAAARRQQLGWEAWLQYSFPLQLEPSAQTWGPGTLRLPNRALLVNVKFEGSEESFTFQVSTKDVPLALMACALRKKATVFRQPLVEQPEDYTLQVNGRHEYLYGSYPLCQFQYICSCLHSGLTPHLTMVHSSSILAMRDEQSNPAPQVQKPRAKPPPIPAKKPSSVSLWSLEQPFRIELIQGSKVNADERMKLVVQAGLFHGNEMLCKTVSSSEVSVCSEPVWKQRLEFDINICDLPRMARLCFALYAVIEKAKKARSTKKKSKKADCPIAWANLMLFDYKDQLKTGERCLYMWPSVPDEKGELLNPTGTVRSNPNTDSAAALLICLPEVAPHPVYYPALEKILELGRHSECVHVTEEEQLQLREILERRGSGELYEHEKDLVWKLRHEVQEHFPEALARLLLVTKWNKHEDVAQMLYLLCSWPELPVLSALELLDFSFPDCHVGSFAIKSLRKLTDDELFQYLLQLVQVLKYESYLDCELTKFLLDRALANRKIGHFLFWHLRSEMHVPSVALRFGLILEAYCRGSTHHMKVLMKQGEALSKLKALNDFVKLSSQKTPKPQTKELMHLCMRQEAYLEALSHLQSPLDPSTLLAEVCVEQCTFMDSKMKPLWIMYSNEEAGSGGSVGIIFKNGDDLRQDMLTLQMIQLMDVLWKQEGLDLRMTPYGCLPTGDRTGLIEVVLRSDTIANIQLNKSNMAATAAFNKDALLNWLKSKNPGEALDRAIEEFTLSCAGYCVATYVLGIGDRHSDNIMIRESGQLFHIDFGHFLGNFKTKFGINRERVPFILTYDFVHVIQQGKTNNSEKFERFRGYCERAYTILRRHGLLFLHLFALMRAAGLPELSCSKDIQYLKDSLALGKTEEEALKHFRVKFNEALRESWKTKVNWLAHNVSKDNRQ
Sequence of PI3Kδ (p110δ/p85α) Recombinant Human Protein (P27986 whole entry partner): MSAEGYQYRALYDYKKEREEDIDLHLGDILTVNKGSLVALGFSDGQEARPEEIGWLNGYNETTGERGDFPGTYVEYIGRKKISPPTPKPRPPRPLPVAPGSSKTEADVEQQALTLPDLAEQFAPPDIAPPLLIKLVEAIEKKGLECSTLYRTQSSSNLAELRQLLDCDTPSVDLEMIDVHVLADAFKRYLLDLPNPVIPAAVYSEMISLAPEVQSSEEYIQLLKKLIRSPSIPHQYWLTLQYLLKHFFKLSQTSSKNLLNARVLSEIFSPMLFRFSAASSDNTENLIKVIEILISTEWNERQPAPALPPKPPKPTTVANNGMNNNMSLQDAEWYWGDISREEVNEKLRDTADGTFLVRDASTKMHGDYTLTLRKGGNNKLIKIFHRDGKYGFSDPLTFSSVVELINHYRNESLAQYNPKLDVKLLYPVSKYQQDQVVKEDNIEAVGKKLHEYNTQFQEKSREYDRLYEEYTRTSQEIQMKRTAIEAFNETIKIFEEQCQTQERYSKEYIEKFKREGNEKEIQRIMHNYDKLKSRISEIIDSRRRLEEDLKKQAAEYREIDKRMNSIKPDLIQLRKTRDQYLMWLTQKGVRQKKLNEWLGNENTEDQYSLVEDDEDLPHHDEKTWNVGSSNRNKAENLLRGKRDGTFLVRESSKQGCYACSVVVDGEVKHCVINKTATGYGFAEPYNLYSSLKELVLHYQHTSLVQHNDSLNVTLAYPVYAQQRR
For experiment [3], the system named is Phosphorylated Ribosomal Protein S6 (RPS6) in THP-1 cells. Briefly: THP-1 RPS6 ELISA assay. It is filed as cell-based, human. Particulars: 10 nM MCP-1, read-out: PI3Kγ_THP1_RPS6_ELISA IC50.
[4] abbreviates: Homo sapiens, THP-1, THP-1 cells.

Sequence of PI3Kγ (p110γ) Recombinant Human Protein (P48736 whole entry): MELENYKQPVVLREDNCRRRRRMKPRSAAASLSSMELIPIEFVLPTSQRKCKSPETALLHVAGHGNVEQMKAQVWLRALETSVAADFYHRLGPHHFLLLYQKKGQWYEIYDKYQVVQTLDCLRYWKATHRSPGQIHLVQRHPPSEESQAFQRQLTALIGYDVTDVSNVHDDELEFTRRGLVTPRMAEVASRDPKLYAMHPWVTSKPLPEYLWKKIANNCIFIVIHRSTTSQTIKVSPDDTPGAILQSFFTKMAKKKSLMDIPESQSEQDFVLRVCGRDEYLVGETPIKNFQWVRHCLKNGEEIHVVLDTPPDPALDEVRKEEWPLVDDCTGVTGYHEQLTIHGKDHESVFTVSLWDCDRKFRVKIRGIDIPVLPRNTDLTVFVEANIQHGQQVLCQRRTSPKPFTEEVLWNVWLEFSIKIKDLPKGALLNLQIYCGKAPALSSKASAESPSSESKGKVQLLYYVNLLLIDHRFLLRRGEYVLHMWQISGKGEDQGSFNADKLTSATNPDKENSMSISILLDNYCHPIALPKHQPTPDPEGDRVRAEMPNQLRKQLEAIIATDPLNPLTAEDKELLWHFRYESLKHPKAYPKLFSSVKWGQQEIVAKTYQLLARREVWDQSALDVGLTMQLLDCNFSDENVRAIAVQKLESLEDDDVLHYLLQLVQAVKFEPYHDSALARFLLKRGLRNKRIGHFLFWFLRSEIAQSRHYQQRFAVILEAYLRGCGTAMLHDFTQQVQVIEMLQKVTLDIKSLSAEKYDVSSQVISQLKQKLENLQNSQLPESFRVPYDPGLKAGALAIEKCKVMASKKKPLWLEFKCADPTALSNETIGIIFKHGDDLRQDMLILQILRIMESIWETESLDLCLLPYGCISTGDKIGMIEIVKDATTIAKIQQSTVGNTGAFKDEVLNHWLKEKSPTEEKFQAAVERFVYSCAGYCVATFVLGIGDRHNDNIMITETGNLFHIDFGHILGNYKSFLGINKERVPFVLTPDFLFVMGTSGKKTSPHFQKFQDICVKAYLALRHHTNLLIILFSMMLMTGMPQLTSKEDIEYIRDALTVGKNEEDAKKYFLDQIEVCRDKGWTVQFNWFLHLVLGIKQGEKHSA

`CCOc1c(C(C)NC(=O)c2c(N)nn3cccnc23)cc(Cl)c2c(Br)n(CCO)nc12` (stereo not drawn) [Example 53, 2-Amino-N-(1-(3-bromo-4-chloro-7-ethoxy-2-(2-hydroxyethyl)-2H-indazol-6-yl)ethyl)pyrazolo[1,5-a]pyrimidine-3-carboxamide]: the IC50 in experiment [1] is under 100 nM; in experiment [2], under 2000 nM; in experiment [3] (setting [4]), over 1000 nM.

As to `CCOc1c(C(C)NC(=O)c2c(N)nn3cccnc23)cc(Cl)c2c(Br)nn(CCO)c12` (stereo not drawn) [Example 54, 2-Amino-N-(1-(3-bromo-4-chloro-7-ethoxy-1-(2-hydroxyethyl)-1H-indazol-6-yl)ethyl)pyrazol[1,5-a]pyrimidine-3-carboxamide trifluoroacetate], the results for the IC50 in experiment [1], in experiment [2] and in experiment [3] (THP-1 cells) were under 100 nM, under 100 nM and over 1000 nM, respectively.

For the compound `CC(NC(=O)c1c(N)nn2cccnc12)c1cc(Cl)c2c(C#N)n[nH]c2c1-c1ccccc1` (stereo not drawn) [Example 55, 2-Amino-N-(1-(4-chloro-3-cyano-7-phenyl-1H-indazol-6-yl)ethyl)pyrazolo[1,5-a]pyrimidine-3-carboxamide trifluoroacetate], the IC50 in experiment [1] is under 100 nM; in experiment [2], under 2000 nM; in experiment [3] (setting [4]) it was over 1000 nM.

In the case of `CC(NC(=O)c1c(N)nn2cccnc12)c1cc(Cl)c2ccnn2c1N1CCC(C#N)CC1` (stereo not drawn) [Example 56, 2-Amino-N-(1-(4-chloro-7-(4-cyanopiperidin-1-yl)pyrazolo[1,5-a]pyridin-6-yl)ethyl)pyrazolo[1,5-a]pyrimidine-3-carboxamide trifluoroacetate], the IC50 in experiment [1] was under 100 nM; in experiment [2] it was under 100 nM; in experiment [3] (setting [4]), under 500 nM.

`C[C@H](NC(=O)c1c(N)nn2cccnc12)c1cc(Cl)c2ccnn2c1N1CCS(=O)(=O)CC1` [Example 57, (S)-2-Amino-N-(1-(4-chloro-7-(1,1-dioxidothiomorpholino)pyrazolo[1,5-a]pyridin-6-yl)ethyl)pyrazolo[1,5-a]pyrimidine-3-carboxamide trifluoroacetate]: the IC50 in experiment [1] was under 100 nM; in experiment [2], under 100 nM; in experiment [3] (setting [4]), under 500 nM.

Turning to `C[C@H](NC(=O)c1c(N)nn2cccnc12)c1cc(Cl)c2c(F)cnn2c1N1CCS(=O)(=O)CC1` [Example 58, (S)-2-Amino-N-(1-(4-chloro-7-(1,1-dioxidothiomorpholino)-3-fluoropyrazolo[1,5-a]pyridin-6-yl)ethyl)pyrazolo[1,5-a]pyrimidine-3-carboxamide trifluoroacetate], the IC50 is under 100 nM in experiment [1], under 100 nM in experiment [2] and under 500 nM in experiment [3] (setting [4]).

As to `CC(NC(=O)c1c(N)nn2cccnc12)c1cc(Cl)c2ccnn2c1-c1cccnc1` (stereo not drawn) [Example 59, 2-Amino-N-(1-(4-chloro-7-(pyridin-3-yl)pyrazolo[1,5-a]pyridin-6-yl)ethyl)pyrazolo[1,5-a]pyrimidine-3-carboxamide trifluoroacetate], the IC50 in experiment [1] was under 100 nM; in experiment [2], under 100 nM; in experiment [3] (setting [4]), under 500 nM.

For `CC(NC(=O)c1c(N)nn2cccnc12)c1cc(Cl)c2c(C#N)cnn2c1N1CCS(=O)(=O)CC1` (stereo not drawn) [Example 60, 2-Amino-N-(1-(4-chloro-3-cyano-7-(1,1-dioxidothiomorpholino)pyrazolo[1,5-a]pyridin-6-yl)ethyl)pyrazolo[1,5-a]pyrimidine-3-carboxamide trifluoroacetate], the IC50 in experiment [1] was under 100 nM; in experiment [2] it was under 500 nM; in experiment [3] (setting [4]) it was under 500 nM.

In the case of `CC(NC(=O)c1c(N)nn2cccnc12)c1cc(Cl)c2c(C#N)cnn2c1N1CCC[C@H](O)C1` (stereo partly drawn) [Example 61, 2-Amino-N-(1-(4-chloro-3-cyano-7-((S)-3-hydroxypiperidin-1-yl)pyrazolo[1,5-a]pyridin-6-yl)ethyl)pyrazolo[1,5-a]pyrimidine-3-carboxamide trifluoroacetate], the IC50 was under 100 nM in experiment [1], under 2000 nM in experiment [2] and under 1000 nM in experiment [3] (setting [4]).

Consider `CC(NC(=O)c1c(N)nn2cccnc12)c1cc(Cl)c2cncn2c1C1CCCC1` (stereo not drawn) [Example 62, 2-amino-N-(1-(8-chloro-5-cyclopentylimidazo[1,5-a]pyridin-6-yl)ethyl)pyrazolo[1,5-a]pyrimidine-3-carboxamide trifluoroacetate], for which the IC50 is under 100 nM in experiment [1], under 500 nM in experiment [2] and under 500 nM in experiment [3] (setting [4]).

With `CC(NC(=O)c1c(N)nn2cccnc12)c1cc(Cl)c2cnnn2c1-c1ccccc1` (stereo not drawn) [Example 63, 2-Amino-N-(1-(4-chloro-7-phenyl-[1,2,3]triazolo[1,5-a]pyridin-6-yl)ethyl)pyrazolo[1,5-a]pyrimidine-3-carboxamide trifluoroacetate], the IC50 in experiment [1], in experiment [2] and in experiment [3] (setting [4]) was under 500 nM each time.

Regarding `CC(NC(=O)c1c(N)nn2cccnc12)c1cc(Cl)c2cncn2c1N1CCC(F)(F)CC1` (stereo not drawn) [Example 65, 2-Amino-N-{1-[8-chloro-5-(4,4-difluoropiperidin-1-yl)imidazo[1,5-a]pyridin-6-yl]ethyl}pyrazolo[1,5-a]pyrimidine-3-carboxamide bistrifluoroacetate], the IC50 in experiment [1] is under 100 nM; in experiment [2], under 100 nM; in experiment [3] (setting [4]), under 500 nM.

For the compound `CC(NC(=O)c1c(N)nn2cccnc12)c1cc(Cl)c2cncn2c1N1CCC(F)CC1` (stereo not drawn) [Example 66, 2-Amino-N-{1-[8-chloro-5-(4-fluoropiperidin-1-yl)imidazo[1,5-a]pyridin-6-yl]ethyl}pyrazolo[1,5-a]pyrimidine-3-carboxamide bistrifluoroacetate], the figures for the IC50 in experiment [1], in experiment [2] and in experiment [3] (setting [4]) were under 100 nM, under 100 nM and under 500 nM, respectively.

Take `CC(NC(=O)c1c(N)nn2cccnc12)c1cc(Cl)c2cncn2c1N1CCCC(F)(F)C1` (stereo not drawn) [Example 67, 2-Amino-N-{1-[8-chloro-5-(3,3-difluoropiperidin-1-yl)imidazo[1,5-a]pyridin-6-yl]ethyl}pyrazolo[1,5-a]pyrimidine-3-carboxamide bis trifluroacetate]: the results for the IC50 in experiment [1], in experiment [2] and in experiment [3] (setting [4]) were under 100 nM, under 100 nM and under 500 nM, respectively.

With `CC(NC(=O)c1c(N)nn2cccnc12)c1cc(Cl)c2cncn2c1N1CCC(F)(F)C1` (stereo not drawn) [Example 68, 2-Amino-N-{1-[8-chloro-5-(3,3-difluoropyrrolidin-1-yl)imidazo[1,5-a]pyridin-6-yl]ethyl}pyrazolo[1,5-a]pyrimidine-3-carboxamide bistrifluoroacetate], the results for the IC50 in experiment [1], in experiment [2] and in experiment [3] (setting [4]) were under 100 nM, under 100 nM and under 500 nM, respectively.

As for `CC1CCN(c2c(C(C)NC(=O)c3c(N)nn4cccnc34)cc(Cl)c3cncn23)CC1` (stereo not drawn) [Example 69, 2-Amino-N-{1-[8-chloro-5-(4-methylpiperidin-1-yl)imidazo[1,5-a]pyridin-6-yl]ethyl}pyrazolo[1,5-a]pyrimidine-3-carboxamide bistrifluoroacetate], the IC50 in experiment [1] is under 100 nM; in experiment [2] it was under 500 nM; in experiment [3] (setting [4]) it was under 1000 nM.

For `CC(NC(=O)c1c(N)nn2cccnc12)c1cc(Cl)c2cncn2c1N1CCCC1(C)C` (stereo not drawn) [Example 70, 2-Amino-N-{1-[8-chloro-5-(2,2-dimethylpyrrolidin-1-yl)imidazo[1,5-a]pyridin-6-yl]ethyl}pyrazolo[1,5-a]pyrimidine-3-carboxamide bistrifluoroacetate], the IC50 was under 100 nM in experiment [1], under 100 nM in experiment [2] and under 500 nM in experiment [3] (setting [4]).

As to `CC(NC(=O)c1c(N)nn2cccnc12)c1cc(Cl)c2cncn2c1N1CCC[C@H]1C` (stereo partly drawn) [Example 71A, 2-Amino-N-(1-{8-chloro-5-[(2R)-2-methylpyrrolidin-1-yl]imidazo[1,5-a]pyridin-6-yl}ethyl)pyrazolo[1,5-a]pyrimidine-3-carboxamide bistrifluoroacetate], the results for the IC50 in experiment [1], in experiment [2] and in experiment [3] (setting [4]) were under 100 nM, under 500 nM and under 1000 nM, respectively.

With `CC(NC(=O)c1c(N)nn2cccnc12)c1cc(Cl)c2cncn2c1N1CCC[C@@H]1C` (stereo partly drawn) [Example 71B, 2-Amino-N-(1-{8-chloro-5-[(2S)-2-methylpyrrolidin-1-yl]imidazo[1,5-a]pyridin-6-yl}ethyl)pyrazolo[1,5-a]pyrimidine-3-carboxamide bistrifluoroacetate], the IC50 in experiment [1] was under 100 nM; in experiment [2] it was under 100 nM; in experiment [3] (setting [4]) it was under 500 nM.

Take `CC(NC(=O)c1c(N)nn2cccnc12)c1cc(Cl)c2cncn2c1N1CCCC[C@H]1C` (stereo partly drawn) [Example 72A, 2-Amino-N-{1-[8-chloro-5-[(2R)-2-methylpiperidin-1-yl)imidazo[1,5-a]pyridin-6-yl]ethyl}pyrazolo[1,5-a]pyrimidine-3-carboxamide bistrifluoroacetate]: the IC50 in experiment [1] was under 100 nM; in experiment [2], under 100 nM; in experiment [3] (setting [4]), under 500 nM.

As for `CC(NC(=O)c1c(N)nn2cccnc12)c1cc(Cl)c2cncn2c1N1CCCC[C@@H]1C` (stereo partly drawn) [Example 72B, 2-Amino-N-{1-[8-chloro-5-[(2S)-2-methylpiperidin-1-yl)imidazo[1,5-a]pyridin-6-yl]ethyl}pyrazolo[1,5-a]pyrimidine-3-carboxamide bistrifluoroacetate], the IC50 in experiment [1] was under 100 nM; in experiment [2], under 100 nM; in experiment [3] (setting [4]), under 500 nM.

Regarding `CC(NC(=O)c1c(N)nn2cccnc12)c1cc(Cl)c2cncn2c1N1CCC(C)(C)C1` (stereo not drawn) [Example 74, 2-Amino-N-{1-[8-chloro-5-(3,3-dimethylpyrrolidin-1-yl)imidazo[1,5-a]pyridin-6-yl]ethyl}pyrazolo[1,5-a]pyrimidine-3-carboxamide bistrifluoroacetate], the IC50 is under 100 nM in experiment [1], under 100 nM in experiment [2] and under 500 nM in experiment [3] (setting [4]).

(Values after patent US10065963B2 (Incyte Corporation, priority 2015, dated 2018).)
